The text below walks through data of US11945807B2, “Splicing modulator antibody-drug conjugates and methods of use” (EISAI R&D MANAGEMENT CO., LTD., priority 2018, dated 2024).

For orientation: IC50 means the midpoint of a concentration-inhibition curve. For orientation: GI50 means the concentration that inhibits growth by half. One may read the pIC50 as −log10 of the IC50, conventionally taken in molar units.

pIC50: −log10 of the molar value. Like-named read-outs stand apart in the source and are kept apart here.

Series [1] relates to FBXW5 (mature mRNA transcript). The series is described as follows: In vivo PD RT-qPCR in NCI-N87 tumors, FBXW5. The note with it: single IV 10 mg/kg; N=4; FIG. 24. Further details: species or system CB17-SCID mice.
Series [2] concerns TAOK1 (neojunction transcript). The series is described as follows: In vivo PD RT-qPCR in NCI-N87 tumors, TAOK1. Also noted: species or system CB17-SCID mice. The following applies: single IV 10 mg/kg; N=4; FIG. 24. For orientation: In qPCR the cycle at which signal appears reflects the starting amount.
In the next series the test system is Ad2.2 pre-mRNA. Nature of the series: In vitro splicing (IVS) RT-qPCR, HeLa nuclear extract, Ad2.2. It counts as biochemical. How it is done: (§1) To evaluate payload activity in a cell-free system, an in vitro splicing assay was performed. The payloads were incubated with nuclear extracts and pre-mRNA substrate minigenes.
(§2) HeLa nuclear extract preparation: HeLa S3 cell pellets were resuspended in hypotonic buffer (10 mM HEPES pH 7.9, 1.5 mM MgCl2, 10 mM KCl, 0.2 mM PMSF, 0.5 mM DTT) and the suspension was brought up to a total of 5 packed cell volume (PCV). After centrifugation, the supernatant was discarded, and the cells were brought up to 3 PCV with hypotonic buffer and incubated on ice for 10 min. Cells were lysed using a dounce homogenizer and then centrifuged. […]. The nuclei were gently mixed for 30 min before centrifuging. The supernatant (nuclear extract) was then dialyzed into storage buffer (20 mM HEPES pH 7.9, 100 mM KCl, 0.2 mM EDTA, 20% glycerol, 0.2 mM PMSF, 0.5 mM DTT). Protein concentration was determined using NanoDrop 8000 UV-Vis spectrophotometer (ThermoFisher Scientific).
IVS: All Ad2-derived sequences (Pellizzoni et al. (1998) Cell 95(5):615-24) were cloned into pcDNA3.1(+) vector (Promega) using 5′ EcoRI and 3′ Xbal restriction sites. The plasmids were linearized using Xbal and used as DNA templates in in vitro transcription reactions. The FtzΔi intron-less plasmid (Luo and Reed (1999) 96(26):14937-42) was linearized using EcoRI. All RNAs were in vitro transcribed and then purified using MEGAScript T7 (Invitrogen) and MegaClear (Invitrogen) kits, respectively. For splicing reactions using Ad2 variant pre-mRNAs, 1 μL reactions were prepared using 8 μg nuclear extracts prepared from HeLa S3, 2 ng pre-mRNA, 0.2 ng FTZΔi, and varying concentrations of compounds or DMSO. After a 15 min pre-incubation at 30° C., 1 μL splicing activation buffer (0.5 mM ATP, 20 mM creatine phosphate, 1.6 mM MgCl2) was added, and the reactions were incubated for 90 min at 30° C. The reactions were then quenched with 13 μL DMSO, and 25 nL was used for RT-qPCR. RT-qPCR reactions were prepared using TaqMan RNA-to-CT 1-step kit (Life Technologies), RNA from splicing reactions, Ad2 (forward: […]; reverse: […]; probe: […]) and Ftz (forward: […]; reverse: […]; probe: […]) mRNA primer-probe sets. Prism 7 (Graphpad) was used for non-linear regression curve fitting of the formed spliced product and normalized to the control (DMSO) sample. […] In the presence of payload, a decrease in the amount of spliced product was observed.

For a further series, the system named is Ad2.1 pre-mRNA. The series is described as follows: In vitro splicing (IVS) RT-qPCR, HeLa nuclear extract, Ad2.1. It counts as biochemical. As to the method: as §1, §2
IVS: All Ad2-derived sequences (Pellizzoni et al. (1998) Cell 95(5):615-24) were cloned into pcDNA3.1(+) vector (Promega) using 5′ EcoRI and 3′ Xbal restriction sites. The plasmids were linearized using Xbal and used as DNA templates in in vitro transcription reactions. The FtzΔi intron-less plasmid (Luo and Reed (1999) 96(26):14937-42) was linearized using EcoRI. All RNAs were in vitro transcribed and then purified using MEGAScript T7 (Invitrogen) and MegaClear (Invitrogen) kits, respectively. For splicing reactions using Ad2 variant pre-mRNAs, 1 μL reactions were prepared using 8 μg nuclear extracts prepared from HeLa S3, 2 ng pre-mRNA, 0.2 ng FTZΔi, and varying concentrations of compounds or DMSO. After a 15 min pre-incubation at 30° C., 1 μL splicing activation buffer (0.5 mM ATP, 20 mM creatine phosphate, 1.6 mM MgCl2) was added, and the reactions were incubated for 90 min at 30° C. The reactions were then quenched with 13 μL DMSO, and 25 nL was used for RT-qPCR. […]

In the next series the test system is THP1.1. The series is described as follows: Payload cell potency and lethality CTGlo 72 h, THP1.1. Type of series: cell-based. The following applies: cell line #3, 72 h, corresponding free payload.
A short description of series [3]: Caco-2 permeability of ADC payload. It counts as in vitro ADME. The note with it: human, corresponding free payload. (Caco-2 monolayers are a common model of the intestinal barrier.)
For a further series, the system named is NCIH1650.1. Nature of the series: Payload cellular potency CTGlo-ATS 72 h, NCIH1650.1. The following applies: cell line #1, 72 h, corresponding free payload. It counts as cell-based.
For a further series, the system named is NCIH1568.1. Nature of the series: Payload cellular potency CTGlo-ATS 72 h, NCIH1568.1. Type of series: cell-based. The following applies: cell line #2, 72 h, corresponding free payload.
Another series relates to Caco-2 cells. Nature of the series: Caco-2 permeability of ADC payload. It counts as in vitro ADME. The note with it: unconjugated payload; apical to basolateral, 2 hours.
Where [4] appears, read: biochemical splicing assay, corresponding free payload, read-out: qPCR-IVS-ATS GMean IC50 (nM) Ad2.2 HELA.2.

Take `CC[C@H](O)[C@@H](C)C1OC1C[C@@](C)(O)/C=C/C=C(\C)[C@H]1OC(=O)C[C@H](O)CC[C@@](C)(OC)[C@@H](OC(=O)N2CCN(CCN3C(=O)C=CC3=O)CC2)/C=C/[C@@H]1C` (stereo in doubt) [ADL14-D1, (2S,3S,6S,7R,10R,E)-10-hydroxy-2-((R,2E,4E)-6-hydroxy-7-((2S,3S)-3-((2R,3S)-3-hydroxypentan-2-yl)oxiran-2-yl)-6-methylhepta-2,4-dien-2-yl)-7-methoxy-3,7-dimethyl-12-oxooxacyclododec-4-en-6-yl 4-(2-(2,5-dioxo-2,5-dihydro-1H-pyrrol-1-yl)ethyl)piperazine-1-carboxylate]: in [1], the “change of FBXW5 mature mRNA transcript in tumor” value was “did not exhibit statistically significant changes”. Besides, the “change of TAOK1 neojunction transcript in tumor” value in series [2] is given as “did not exhibit statistically significant changes”.

Turning to `CC[C@H](O)[C@@H](C)[C@H]1O[C@@H]1C[C@@](C)(O)/C=C/C=C(\C)[C@H]1OC(=O)C[C@H](O)CC[C@@](C)(OC(C)=O)[C@@H](OC(=O)N2CCN(C(=O)OCc3ccc(NC(=O)[C@H](CCCNC(N)=O)NC(=O)[C@@H](NC(=O)CCCCCN4C(=O)C=CC4=O)C(C)C)cc3)CC2)/C=C/[C@@H]1C` [ADL1-D4], in [1], the “change of FBXW5 mature mRNA transcript in tumor” value is reported as “significant depletion”. Also, in [2], the “change of TAOK1 neojunction transcript in tumor” value is reported as “significant increases”.

With `CC(=O)N1CCC(n2nnc3c(F)cc(/C=C(\C)[C@H]4OC(=O)C[C@H](O)CC[C@H](C)[C@@H](OC(=O)N5CC[N+](C)(Cc6ccc(NC(=O)[C@H](C)NC(=O)[C@@H](NC(=O)CCCCCN7C(=O)C=CC7=O)C(C)C)cc6)CC5)/C=C/[C@@H]4C)cc32)CC1` [ADL5-D15, 4-((((2S,3S,6R,7S,10R,E)-2-((E)-1-(1-(1-acetylpiperidin-4-yl)-4-fluoro-1H-benzo[d][1,2,3]triazol-6-yl)prop-1-en-2-yl)-10-hydroxy-3,7-dimethyl-12-oxooxacyclododec-4-en-6-yl)oxy)carbonyl)-1-(4-((S)-2-((S)-2-(6-(2,5-dioxo-2,5-dihydro-1H-pyrrol-1-yl)hexanamido)-3-methylbutanamido)propanamido)benzyl)-1-methylpiperazin-1-ium], the “change of FBXW5 mature mRNA transcript in tumor” value in series [1] is recorded as “significant depletion”. In series [2], the “change of TAOK1 neojunction transcript in tumor” value was “an increase in TAOK1, but did not reach statistical significance”.

For `CC[C@H](O)[C@@H](C)[C@H]1O[C@@H]1C[C@@](C)(O)/C=C/C=C(\C)[C@H]1OC(=O)C[C@H](O)CC[C@@](C)(OC(C)=O)[C@@H](OC(=O)N2CCN(CCN)CC2)/C=C/[C@@H]1C` [D3, (2S,3S,6S,7R,10R,E)-7-acetoxy-10-hydroxy-2-((R,2E,4E)-6-hydroxy-7-((2R,3R)-3-((2R,3S)-3-hydroxypentan-2-yl)oxiran-2-yl)-6-methylhepta-2,4-dien-2-yl)-3,7-dimethyl-12-oxooxacyclododec-4-en-6-yl 4-(2-aminoethyl)piperazine-1-carboxylate], the concentration for half-maximal inhibition (IC50) with Ad2.2 pre-mRNA (setting [4]) is 10.9 nM.

Take `CC[C@H](O)[C@@H](C)[C@H]1O[C@@H]1C[C@@](C)(O)/C=C/C=C(\C)[C@H]1OC(=O)C[C@H](O)CC[C@@](C)(OC(C)=O)[C@@H](OC(=O)N2C[C@@H]3C[C@H]2CN3)/C=C/[C@@H]1C` [D5, (2S,3S,6S,7R,10R,E)-7-acetoxy-10-hydroxy-2-((R,2E,4E)-6-hydroxy-7-((2R,3R)-3-((2R,3S)-3-hydroxypentan-2-yl)oxiran-2-yl)-6-methylhepta-2,4-dien-2-yl)-3,7-dimethyl-12-oxooxacyclododec-4-en-6-yl (1S,4S)-2,5-diazabicyclo[2.2.1]heptane-2-carboxylate]: the IC50 in the series with Ad2.2 pre-mRNA (setting [4]) worked out at 23.9 nM.

Take `CC[C@H](O)[C@@H](C)[C@H]1O[C@@H]1C[C@@](C)(O)/C=C/C=C(\C)[C@H]1OC(=O)C[C@H](O)CC[C@@](C)(O)[C@@H](OC(=O)N2CCNCC2)/C=C/[C@@H]1C` [D12, (2S,3S,6S,7R,10R,E)-7,10-dihydroxy-2-((R,2E,4E)-6-hydroxy-7-((2R,3R)-3-((2R,3S)-3-hydroxypentan-2-yl)oxiran-2-yl)-6-methylhepta-2,4-dien-2-yl)-3,7-dimethyl-12-oxooxacyclododec-4-en-6-yl piperazine-1-carboxylate]: the IC50 in the series with Ad2.1 pre-mRNA (biochemical splicing assay, corresponding free payload, read-out: qPCR-IVS-ATS GMean IC50 (nM) Ad2.1 HELA.2) was determined as 16.5 nM; in the series with Ad2.2 pre-mRNA (setting [4]), 25.1 nM. Also, in the series with Ad2.1 pre-mRNA (ratio of IVS IC50 Ad2.1/Ad2.2, corresponding free payload), the “Ratio Ad2.1/2.2” value amounted to 0.659. In addition, the “CTGlo-ATS GMean LD50 (nM) 72 h THP1.1” value in the series with THP1.1 amounted to 900.227 nM. Also, the concentration for 50% growth inhibition (GI50) with THP1.1 (read-out: CTGlo-ATS GMean GI50 (nM) 72 h THP1.1) is 202 nM; with NCIH1650.1 (read-out: CTGlo-ATS GMean GI50 (nM) 72 h NCIH1650.1) it was 258 nM; in the series with NCIH1568.1 (read-out: CTGlo-ATS GMean GI50 (nM) 72 h NCIH1568.1) it was 164 nM. In series [3] (Caco-2, A-B, read-out: Perm. Mean Caco 2 A-B Perm (10e−6 cm/s)), the Papp A→B at 2 h, 10 NM was found to be 1.7 nm/s. In addition, the Papp B→A at 2 h, 10 NM in series [3] (Caco-2, B-A, read-out: Perm. Mean Caco 2 B-A Perm (10e−6 cm/s)) turned out to be 2.3 nm/s. For the same molecule, the efflux ratio at 2 h, 10 NM in series [3] (Caco-2 efflux ratio, read-out: ER) was determined as 1.35. Further, the “CTGlo-ATS GMean LD50 (nM) 72 h NCIH1650.1” value in the series with NCIH1650.1 is more than 10000.00 nM. In the series on NCIH1568.1, the “CTGlo-ATS GMean LD50 (nM) 72 h NCIH1568.1” value is on record as 1193.037 nM.

With `COc1cc2cc(c1Cl)N(C)C(=O)C[C@H](OC(=O)[C@H](C)N(C)C(=O)CCS)[C@]1(C)O[C@H]1[C@H](C)[C@@H]1C[C@@](O)(NC(=O)O1)[C@H](OC)/C=C/C=C(\C)C2` [DM1, reference compound], the negative logarithm of the IC50 (pIC50) in the series on Ad2.1 pre-mRNA (unconjugated payload, HeLa nuclear extract, read-out: qPCR-IVS-AT S Gmean IC50 (nm) Ad2.1 HELA.2) was less than 4.60. The IC50 in the series with Ad2.2 pre-mRNA (unconjugated payload, HeLa nuclear extract, read-out: qPCR-IVS-AT S GMean IC50 (nM) Ad2.2 HELA.2) is less than 25000 nM. Moreover, the “Permeability Mean Caco-2 A-B Perm (10e−6 cm/s)” value with Caco-2 cells is 0.38 10e−6 cm/s.
